Test system: human vascular smooth muscle cells
Type: cell-based
Conditions: for IC50: human vascular smooth muscle cells, 48 hours with substance, WST-1 absorbance at 450 nm
Description: Substances indicated in Table 1 were used to carry out a cell cytotoxicity test using human vascular smooth muscle cells.
More particularly, human vascular smooth muscle cells were implanted into individual wells of a 96-well microtitor plate along with a culture solution (commercial name: SmGM-2 Bullet kit, made by Cambrex Corporation), followed by cultivation in a carbon dioxide gas incubator at 37° C. for 48 hours. The culture solution dissolving MgCl2 that was used as a chemical substance to be tested was added thereto in every […] so that a final concentration was at 1×10^−7 to 10^−1 M, followed by cultivation for further 48 hours.
Next, WST-1 (La Roche Ltd.) was added, followed by cultivation for 4 hours. WST-1 taken in the human vascular smooth muscle cells was extracted, and the absorbance at 450 nm of the resulting extract was measured by means of a microreader (commercial name: iEMS reader MF, made by Labsystems Inc.). It will be noted that WST-1 taken in the human vascular smooth muscle cells emits light when oxidized and reduced by means of an electron transmission system of mitochondria. Accordingly, WST-1 emits light by reaction only with living cells.
A graph was made wherein an abscissa indicates a concentration of a chemical substance to be subjected to the cytotoxicity test and an ordinate indicates a ratio of a quantity of emitted light of cells subjected to treatment with a chemical substance to be tested to a quantity of emitted light of non-treated cells for reference. The degree of cell cytotoxicity was quantified as a concentration of a chemical substance (IC50 value) at which a ratio of a quantity of a dye taken in the treated cells to a quantity of a dye taken in non-treated cells was at 50%.
Such a test was carried out with respect to other types of chemical substances (NdCl2, GdCl2, Ycl3, CrCl2, and NiCl2) to be subjected to the cytotoxicity test to likewise obtain IC50 values.

SMILES | IC50 [mM] | cell cytotoxicity (in words)
[Cl][Cr][Cl] [CrCl2] | 0.11 | 
[Cl][Gd][Cl] [GdCl2] | 81 | very low
[Cl-].[Cl-].[Mg+2] [MgCl2] | 34 | very low
[Cl-].[Cl-].[Nd+2] [NdCl2] | 74 | very low
[Cl][Ni][Cl] [NiCl2] | 0.75 | 
[Cl-].[Cl-].[Cl-].[Y+3] [Ycl3] | 0.36 | 

Source: patent US8293261B2, “Intravascular implant” (Terumo Kabushiki Kaisha, priority 2005, dated 2012)
